According to the supplement of paper PMC13380429:

Experiments:
[1] = test system: A549-ACE2 infected with SARS-CoV-2; experiment: SARS-CoV-2 infection rate relative to DMSO; higher = more infection; conditions: 24 h
[2] = test system: A549-ACE2; experiment: phospholipidosis EC50; higher = less potent phospholipidosis inducer
[3] = test system: A549-ACE2 infected with SARS-CoV-2; experiment: cell count relative to DMSO; higher = less toxic; conditions: 24 h
[4] = test system: Calu-3; experiment: relative viability EC50 (midpoint between 100% and the lowest measured viability); higher = less toxic; conditions: 72 h
[5] = test system: HepG2; experiment: as above; conditions: 72 h
[6] = test system: Caco-2; experiment: as above; conditions: 72 h
[7] = test system: Vero E6; experiment: as above; conditions: 72 h
[8] = test system: U2OS; experiment: as above; conditions: 72 h
[9] = test system: A549-ACE2 infected with SARS-CoV-2; experiment: morphology score (similarity to uninfected cells); higher = more like uninfected cells; conditions: 24 h
[10] = test system: Calu-3; experiment: cell viability relative to DMSO; higher = less toxic; conditions: 72 h
[11] = test system: HepG2; experiment: as above; conditions: 72 h
[12] = test system: Caco-2; experiment: as above; conditions: 72 h
[13] = test system: Vero E6; experiment: as above; conditions: 72 h
[14] = test system: U2OS; experiment: as above; conditions: 72 h
[15] = test system: Calu-3; experiment: drug sensitivity score (DSS) for viability; higher = more toxic; extreme values may be limits of the assay; conditions: 72 h
[16] = test system: HepG2; experiment: as above; conditions: 72 h
[17] = test system: Caco-2; experiment: as above; conditions: 72 h
[18] = test system: Vero E6; experiment: as above; conditions: 72 h
[19] = test system: U2OS; experiment: as above; conditions: 72 h
[20] = test system: A549-ACE2; experiment: drug-induced phospholipidosis relative to tamoxifen; higher = more phospholipidosis

CN1CCN(Cc2ccc(-c3cnc4[nH]cc(-c5ccc6[nH]ccc6c5)c4c3)cc2)CC1 [URMC-099]
Conditions	SARS-CoV-2 infection rate [%]	cell count [%]	cell viability [%]	morphology score	phospholipidosis EC50 [nM]
[1], 0.1 µM	99	–	–	–	–
[1], 0.3 µM	102	–	–	–	–
[1], 1 µM	85	–	–	–	–
[1], 3 µM	18	–	–	–	–
[2], 24 h	–	–	–	–	1070
[2], 48 h	–	–	–	–	4290
[2], 72 h	–	–	–	–	8250
[3], 0.1 µM	–	111	–	–	–
[3], 0.3 µM	–	105	–	–	–
[3], 1 µM	–	110	–	–	–
[3], 3 µM	–	108	–	–	–
[9], 0.1 µM	–	–	–	0.26	–
[9], 0.3 µM	–	–	–	0.37	–
[9], 1 µM	–	–	–	0.6	–
[9], 3 µM	–	–	–	0.68	–
[10], 1 nM	–	–	93.1	–	–
[10], 10 nM	–	–	100	–	–
[10], 100 nM	–	–	95.3	–	–
[10], 1000 nM	–	–	128	–	–
[10], 10000 nM	–	–	111	–	–
[11], 1 nM	–	–	111	–	–
[11], 10 nM	–	–	89.8	–	–
[11], 100 nM	–	–	95.8	–	–
[11], 1000 nM	–	–	89.2	–	–
[11], 10000 nM	–	–	5.3	–	–
[12], 1 nM	–	–	103	–	–
[12], 10 nM	–	–	107	–	–
[12], 100 nM	–	–	104	–	–
[12], 1000 nM	–	–	111	–	–
[12], 10000 nM	–	–	7.8	–	–
[13], 1 nM	–	–	92.9	–	–
[13], 10 nM	–	–	102	–	–
[13], 100 nM	–	–	95.4	–	–
[13], 1000 nM	–	–	105	–	–
[13], 10000 nM	–	–	0.9	–	–
[14], 1 nM	–	–	99	–	–
[14], 10 nM	–	–	95.5	–	–
[14], 100 nM	–	–	104	–	–
[14], 1000 nM	–	–	95.2	–	–
[14], 10000 nM	–	–	3.5	–	–

Conditions	drug sensitivity score	relative viability EC50
[4]	–	> 10 µM
[5]	–	2230 nM
[6]	–	3.71 µM
[7]	–	3.45 µM
[8]	–	2790 nM
[15]	0	–
[16]	7	–
[17]	4.4	–
[18]	5.1	–
[19]	6	–

drug-induced phospholipidosis [%], [20]
Conditions	0.3 µM	0.833333 µM	3.33333 µM	6.66667 µM	10 µM
24 h	3.77	15.4	149	143	136
48 h	2.54	6.25	111	164	208
72 h	3.51	1.18	69.5	69.5	200

CC(C)(Cc1ccc2ccccc2c1)NC[C@@H](O)COc1cccc(Cl)c1C#N [NPS-2143]
Conditions	SARS-CoV-2 infection rate [%]	cell count [%]	cell viability [%]	morphology score	phospholipidosis EC50 [nM]
[1], 0.3 µM	101	–	–	–	–
[1], 3 µM	23	–	–	–	–
[1], 10 µM	43	–	–	–	–
[2], 24 h	–	–	–	–	1060
[2], 48 h	–	–	–	–	2340
[2], 72 h	–	–	–	–	3100
[3], 0.3 µM	–	100	–	–	–
[3], 3 µM	–	113	–	–	–
[3], 10 µM	–	68	–	–	–
[9], 0.3 µM	–	–	–	0.09	–
[9], 3 µM	–	–	–	0.87	–
[9], 10 µM	–	–	–	0.11	–
[10], 1 nM	–	–	89.4	–	–
[10], 10 nM	–	–	95.8	–	–
[10], 100 nM	–	–	96.7	–	–
[10], 1000 nM	–	–	103	–	–
[10], 10000 nM	–	–	0.6	–	–
[11], 1 nM	–	–	100	–	–
[11], 10 nM	–	–	104	–	–
[11], 100 nM	–	–	103	–	–
[11], 1000 nM	–	–	101	–	–
[11], 10000 nM	–	–	53.9	–	–
[12], 1 nM	–	–	99.1	–	–
[12], 10 nM	–	–	101	–	–
[12], 100 nM	–	–	103	–	–
[12], 1000 nM	–	–	100	–	–
[12], 10000 nM	–	–	50.5	–	–
[13], 1 nM	–	–	93.1	–	–
[13], 10 nM	–	–	97.6	–	–
[13], 100 nM	–	–	93.5	–	–
[13], 1000 nM	–	–	99.6	–	–
[13], 10000 nM	–	–	84.4	–	–
[14], 1 nM	–	–	100	–	–
[14], 10 nM	–	–	97.9	–	–
[14], 100 nM	–	–	105	–	–
[14], 1000 nM	–	–	96.1	–	–
[14], 10000 nM	–	–	39.1	–	–

Conditions	drug sensitivity score	relative viability EC50
[4]	–	3.32 µM
[7]	–	> 10 µM
[8]	–	2650 nM
[15]	5.3	–
[16]	2.3	–
[17]	2.6	–
[18]	0.3	–
[19]	3.9	–

drug-induced phospholipidosis [%], [20]
Conditions	0.3 µM	0.833333 µM	3.33333 µM	6.66667 µM	10 µM	30 µM
24 h	14.7	30.2	98.4	140	135	14.7
48 h	8.59	25.2	96.8	135	132	–
72 h	10.7	13.3	94	135	133	–
